In patent US4868191A, “Alkaloid compounds, and pharmaceutical compositions containing them” (Harbor Branch Oceanographic Institution, Inc., priority 1988, dated 1989):
Converted amounts (≈) assume the structure as drawn.

What was measured:
[1] = Immunomodulatory activity, two-way mixed lymphocyte reaction assay (% LCV); format: cell-based, murine; details: mouse, lymphocytes
Excerpt: This example concerns immunomodulatory activity of compounds of the invention on murine derived, two-way mixed lymphocyte reaction assay.

[2] = tested on: Mouse P388; assay: Mouse P388 in vivo antitumor activity (T/C); details: Mouse P388, at 5 mg/kg
[3] = tested on: T-47D human breast cancer cells; assay: Human Tumor Cell Line Assay, T-47D; format: cell-based; details: T47D, 120 hours, read-out: T-47D activity score (cell density vs control)
Experimental: (§1) The following assay methods are utilized to evaluate the antitumor activity of the alkaloid compounds of the invention.
(§2) Human Tumor Cell Line Assay
(§3) Maintenance of Cell Lines
(§4) HCT-8 human colon tumor cells are grown in RPMI 1640 medium. A-549 human lung carcinoma cells are grown in Dublecco MEM medium. T-47D human breast cancer cells are cultured in Eagles MEM medium. All media (Biologos, Inc.) are supplemented with 10% fetal bovine serum and contain 50 ug/ml gentamicin. All humand tumor cell lines are incubated in humidified air containing 5% CO2 at 37° C. and subcultured once a week. The seeding levels are 200,000 T-47D cells, 60,000 HCT-8 cells and 300,000 A-549 cells per T-25 Flask. Vinblastine is used as a positive control.
(§5) 2. Incubate is a CO2 incubator for 48 hours.
(§6) 3. Add compound to each well and incubate for an additional 120 hours.
(§7) 4. Discard medium and stain with methylene blue (HCT-8) or crystal violet (A-549 and T-47D).
(§8) 5. Compare cell density of compound-treated with that of the control (no compound added) as follows: ND (not detectable), 90% 1+, 75-90% 2+, 50-74% 3+, 25-49% 4+, 25% of control growth.
(§9) The positive control is Vinblastine in aqueous solution at the following concentrations: […]

[4] = tested on: A-549 human lung carcinoma cells; assay: Human Tumor Cell Line Assay, A-549; format: cell-based; details: 120 hours, read-out: A-549 activity score (cell density vs control)
Experimental: as §1, §2, §3, §4, §5, §6, §7, §8, §9

[5] = tested on: P388 mouse leukemia cells; assay: P338 (P388) Mouse Leukemia Cell Assay, in vitro; format: cell-based; details: 48 hours
Experimental: as §1
P338 Mouse Leukemia Cell Assay
as §3
P338 mouse leukemis cells are grown in Dulbecco MEM medium with 10% horse serum, 4 mM glutamine, and 20 ug/ml gentamycin (Biologos, Inc.). Cells are incubated in humidified air containing 10% CO2 at 37° C. and subcultured 2 time per week.
1. Add compound to each well of a 24-well plate to tube and allow solvent to evaporate to dryness.
2. Add 2 ml (1.2×10^5) cells to each well or tube and mix.
3. Incubate in 10% CO2 at 37° C. for 48 hours.
4. Read plates with an inverted microscope, scoring activity from 1+ to 4+ as follows: ND (not detectable), 90% 1+, 75-90% 2+, 50-74% 3+, 25-49% 4+, 25% of control growth.
Alternatively, the activity may be designated as IC50 concentration which is the concentration of compound required to inhibit 50% of cell growth on the plate.
Cell counts are performed on each tube and results are reported as percent of control.

[6] = tested on: HCT-8 human colon tumor cells; assay: Human Tumor Cell Line Assay, HCT-8; format: cell-based; details: 120 hours, read-out: HCT-8 activity score (cell density vs control)
Experimental: as §1, §2, §3, §4, §5, §6, §7, §8, §9

Row | SMILES | viability ([1]; 0.01 ug/well) [%] | viability ([1]; 0.1 ug/well) [%] | viability ([1]; 1.0 ug/well) [%] | viability ([1]; 10.0 ug/well) [%] | in vivo T/C [2] [%] | activity at 0.01 µg/mL ([3]; 0.01 ug/ml) [%] | activity at 0.1 µg/mL ([3]; 0.1 ug/ml) [%] | activity at 1 µg/mL ([3]; 1 ug/ml) [%] | activity at 2 µg/mL ([3]; 2 ug/ml) [%] | activity at 0.01 µg/mL ([4]; A549, 0.01 ug/ml) [%] | activity at 0.1 µg/mL ([4]; A549, 0.1 ug/ml) [%] | activity at 1 µg/mL ([4]; A549, 1 ug/ml) [%] | activity at 2 µg/mL ([4]; A549, 2 ug/ml) [%] | IC50 [5] [µg/mL] | activity at 0.01 µg/mL ([6]; 0.01 ug/ml) [%] | activity at 0.1 µg/mL ([6]; 0.1 ug/ml) [%] | activity at 1 µg/mL ([6]; 1 ug/ml) [%] | activity at 2 µg/mL ([6]; 2 ug/ml) [%]
1 | CN(C)CCc1c2c3c(c4scnc14)N(C)CCC3c1ccccc1N2 (stereo not shown) [Tetrahydrodercitin 1, tetrahydrodercitin 1] | 100 | 91 | 49 | 41 |  |  |  |  |  |  |  |  |  |  |  |  |  | 
2 | CN(C)CCc1c2ncsc2c2c3c(c4ccccc4nc13)C=CN2C [Dercitin 1, dercitin 1] | 56 | 48 | 46 | 67 | 170 | > 90 | < 25 | < 25 | < 25 | > 90 | < 25 | < 25 | < 25 | 0.05 (≈ 0.139 µM) | > 90 | < 25 | < 25 | < 25
